The values below come from patent US12616681B2, “Compositions and methods for treating renal injury” (priority 2019, dated 2026).

Data set [1] concerns contrast-induced acute kidney injury (CIAKI) mice. Kind of data set: CIAKI mouse model: renal blood flow (laser Doppler flux). The class given is in vivo, C57/BL6 mice. As to conditions: CM + drug, 48 h after CM. As to the method:
Total RBF was assessed by measuring renal Doppler flux using noninvasive laser Doppler flowmetry (PeriFlux System 5000, Perimed AB, Sweden). Laser Doppler probes were placed on the kidney surface to measure the renal flux. The flux was measured 48 h after CM administration. The relative increase represented the percentage increase in renal blood flow from baseline to peak for each test. Statistical significance was set as p<0.05.

Data set [2] shares this test system. Kind of data set: CIAKI mouse model: AMP and adenosine levels in renal tissue. The class given is in vivo, C57/BL6 mice. As to conditions: 48 h after CM. How it is done: 48 h after CM administration, serum and kidney tissues were harvested. The adenosine levels in the serum and kidney tissues were measured using high-performance liquid chromatography.
For data set [3] the test system is unchanged. In words: CIAKI mouse model: necrotic and apoptotic cell death, gross findings. The class given is in vivo, C57/BL6 mice. To be noted: 48 h after CM. How it is done:
Kidneys were harvested at 48 h after the CM injection, fixed in 4% phosphate-buffered formalin, and embedded in paraffin. To evaluate necrosis, […] paraffin sections were stained with hematoxylin and eosin. Tubular injury was scored semi-quantitatively according to a system by a pathologist who examined at least 20 separate fields (400× magnification) in the outer medulla, which is the zone most sensitive to ischemic injury. The scoring system was as follows: 0, no damage; 1, patchy isolated unicellular necrosis; 2, tubular necrosis <25%; 3, tubular necrosis 25-50%; and 4, tubular necrosis >50%. At least 20 consecutive high-power fields per section were scored by two operators blind to the details of the experiment. To analyze the frequency of apoptosis, […] paraffin sections were subjected to terminal deoxynucleotidyl transferase-mediated dUTP nick-end labeling (TUNEL) assay (Millipore, Temecula, CA, USA) according to the manufacturer's protocol. Four […] paraffin sections were incubated with the TUNEL reaction mixture at 37° C. for 1 h, followed by incubation with a horseradish peroxidase-conjugated detection antibody. The signals were visualized using diaminobenzidine (Sigma-Aldrich). After counterstaining with Mayer's hematoxylin, TUNEL-positive cells were counted in at least five separate fields (640× magnification) in the outer medulla, and the apoptosis index (%, number of apoptosis cells/total number of cells) was calculated using GENASIS software.

Data set [4] has as its system human renal proximal tubular epithelial cells (hRPTECs). In words: hRPTEC apoptosis by flow cytometry with iodixanol. The class given is cell-based. As to conditions: drug with iodixanol 50 mgI/mL, 24 h. How it is done:
Human renal proximal tubular epithelial cells (hRPTECs) were purchased from the American Type Culture Collection (#PCS-400-010TM, Manassas, VA, USA). These cells were grown in 75 cm^2 flasks in Renal Epithelial Cell Basal Medium (PCS-400-030TM, ATCCVR) supplemented with Renal Epithelial Cell Growth Kit (PCS-400-040TM, ATCCVR).
After the treatment described in the section above, the hRPTECs were pelleted by centrifugation at 1800 rpm for 10 min and incubated with annexin V fluorescein isothiocyanate and propidium iodide using an Apoptosis Detection Kit I (#556547, BD Biosciences, San Jose, CA, USA) according to the manufacture's instruction. Then quantification was conducted using a FACSC flow cytometer with Cell Quest software (BD Biosciences).

The test system is the same in data set [5]. In words: hRPTEC cell viability (MTT assay) with iodixanol. The class given is cell-based. To be noted: iodixanol 50 mgI/mL, 24 h; PGE1 100 ng/mL, PGE2 100 nM vs CM vehicle; CM vs normal control. On the technique in general: Tetrazolium dyes change colour on reduction, which living cells bring about.
Protocol: 3-(4,5-Dimethyl thiazol-2-yl)-2,5-diphenyl tetrazolium bromide (MTT) assay was used to assess cell viability. The hRPTECs were cultivated in 96-well plates at a density of 10^5 cells/mL and then incubated for 24 h. […] Then, 10 µM MTT (Sigma-Aldrich) was added to each well for an additional 4 h. The blue MTT formazan precipitate was dissolved in 100 mL dimethyl sulfoxide. The absorbance at 540 nm was measured with a multi-well plate reader. Cell viability was expressed as a percentage of the no-treatment cells, as the mean value±standard deviation of the six independent experiments.
For data set [6] the following is noted: rapidly degraded by 15-PGDH; cited from earlier work.

With `CCCCC[C@H](O)/C=C/[C@H]1[C@H](O)CC(=O)[C@@H]1C/C=C\CCCC(=O)O` [PGE2, prostaglandin E2], the “RBF (renal Doppler flux)” value in data set [1] amounted to 541.4±22.65. In addition, in data set [2], the “AMP level compared to CIAKI mice, in words” value was “increased” and the “adenosine level compared to CIAKI mice, in words” value is reported as “increased”. Also, in data set [3], the “TUNEL-positive cell proportions vs CIAKI mice, in words” value is reported as “significantly lower” and the “vascular congestion in the outer medullary region (gross findings)” value is recorded as “less-congested”. The “microscopic renal injury score” value in data set [3] (CM + drug, score 0-4) is on record as 1.55±0.14. For the same molecule, the “apoptosis rate of hRPTECs” value in data set [4] was 19.43±1.38%. Further, the “cell viability (MTT), in words” value in data set [5] is on record as “did not show any difference”. In addition, in data set [6], the estimated half-life entry was “less than 15 s”.
